Assay results taken from ChEMBL document CHEMBL5465560, “Selectivity Literature for EUbOPEN Chemogenomic Library” (2024).

Tests used:
[1] = molecular target: T1, 3-phosphoinositide-dependent protein kinase 1 (Homo sapiens) (UniProt O15530); experiment: Selectivity interaction (KinomeScan (DiscoverX)) EUB0000092b PDPK1; details: at 10 µM
T1 sequence (whole entry): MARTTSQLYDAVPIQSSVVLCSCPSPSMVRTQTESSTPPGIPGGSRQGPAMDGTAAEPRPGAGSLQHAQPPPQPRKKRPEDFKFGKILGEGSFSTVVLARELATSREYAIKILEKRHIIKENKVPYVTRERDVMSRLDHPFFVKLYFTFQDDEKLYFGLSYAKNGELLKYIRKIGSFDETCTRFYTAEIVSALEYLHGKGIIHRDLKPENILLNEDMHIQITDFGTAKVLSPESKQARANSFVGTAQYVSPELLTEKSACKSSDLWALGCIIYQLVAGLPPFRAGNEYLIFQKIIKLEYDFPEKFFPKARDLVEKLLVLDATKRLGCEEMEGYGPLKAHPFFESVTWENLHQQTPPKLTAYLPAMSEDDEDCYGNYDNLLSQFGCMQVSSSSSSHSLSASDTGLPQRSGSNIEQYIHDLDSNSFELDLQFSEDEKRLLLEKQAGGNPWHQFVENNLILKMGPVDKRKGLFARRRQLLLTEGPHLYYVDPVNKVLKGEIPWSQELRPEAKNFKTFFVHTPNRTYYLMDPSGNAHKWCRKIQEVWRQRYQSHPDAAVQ

[2] = molecular target: Calcium/calmodulin-dependent protein kinase type II subunit gamma (Homo sapiens) (UniProt Q13555); experiment: Selectivity interaction (KinomeScan (DiscoverX)) EUB0000655a CAMK2G; details: at 10 µM
[3] = molecular target: T2, Dual specificity protein kinase TTK (Homo sapiens) (UniProt P33981); experiment: Selectivity interaction (ProQinase) EUB0000171b TTK
T2 sequence (whole entry): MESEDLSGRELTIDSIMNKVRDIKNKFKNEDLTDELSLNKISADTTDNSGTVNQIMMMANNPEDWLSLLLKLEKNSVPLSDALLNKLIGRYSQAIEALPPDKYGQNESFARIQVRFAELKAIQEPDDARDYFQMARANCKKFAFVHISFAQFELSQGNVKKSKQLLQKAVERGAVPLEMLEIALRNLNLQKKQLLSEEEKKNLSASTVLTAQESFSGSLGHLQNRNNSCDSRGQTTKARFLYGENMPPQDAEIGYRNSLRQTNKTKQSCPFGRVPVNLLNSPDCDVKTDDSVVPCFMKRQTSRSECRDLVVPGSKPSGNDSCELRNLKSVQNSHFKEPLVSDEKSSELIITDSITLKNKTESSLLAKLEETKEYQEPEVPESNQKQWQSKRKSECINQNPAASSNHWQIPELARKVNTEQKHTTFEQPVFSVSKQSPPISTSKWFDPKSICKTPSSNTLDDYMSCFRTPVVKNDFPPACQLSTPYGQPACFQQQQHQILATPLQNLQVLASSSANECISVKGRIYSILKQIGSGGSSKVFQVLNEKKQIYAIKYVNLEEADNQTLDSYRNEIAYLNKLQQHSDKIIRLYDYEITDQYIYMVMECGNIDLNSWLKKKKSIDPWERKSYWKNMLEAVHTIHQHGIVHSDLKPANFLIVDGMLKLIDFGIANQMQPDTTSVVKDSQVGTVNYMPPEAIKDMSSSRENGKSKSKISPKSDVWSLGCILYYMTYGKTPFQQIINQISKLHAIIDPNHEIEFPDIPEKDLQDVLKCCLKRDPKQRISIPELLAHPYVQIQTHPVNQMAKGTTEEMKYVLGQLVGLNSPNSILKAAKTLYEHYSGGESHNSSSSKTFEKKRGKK

[4] = molecular target: Serine/threonine-protein kinase N1 (Homo sapiens, UniProt Q16512); experiment: Selectivity interaction (ProQinase) EUB0000171b PKN1
[5] = molecular target: Serine/threonine-protein kinase 32B (Homo sapiens) (UniProt Q9NY57); details: at 10 µM
[6] = molecular target: Mitogen-activated protein kinase kinase kinase 8 (Homo sapiens, UniProt P41279); experiment: Selectivity interaction (Kinase panel (Invitrogen)) EUB0000639a MAP3K8; details: at 200 nM
[7] = molecular target: Fibroblast growth factor receptor 2 (Homo sapiens) (UniProt P21802); experiment: Selectivity interaction (KinomeScan (DiscoverX)) EUB0000607a FGFR2; details: at 10 µM
[8] = molecular target: Ribosomal protein S6 kinase alpha-5 (Homo sapiens) (UniProt O75582); details: at 10 µM
[9] = molecular target: MAP kinase-activated protein kinase 2 (Homo sapiens, UniProt P49137); experiment: Selectivity interaction (Kinase panel (literature)) EUB0001199aCl MAPKAPK2; details: at 1 µM
[10] = molecular target: Receptor tyrosine-protein kinase erbB-2 (Homo sapiens, UniProt P04626); experiment: Selectivity interaction (KinomeScan (DiscoverX)) EUB0000618a ERBB2; details: at 10 µM
[11] = molecular target: T3, Inhibitor of nuclear factor kappa-B kinase subunit alpha (Homo sapiens) (UniProt O15111); experiment: Selectivity interaction (KinomeScan (DiscoverX)) EUB0001619a CHUK; details: at 1 µM
T3 sequence (whole entry): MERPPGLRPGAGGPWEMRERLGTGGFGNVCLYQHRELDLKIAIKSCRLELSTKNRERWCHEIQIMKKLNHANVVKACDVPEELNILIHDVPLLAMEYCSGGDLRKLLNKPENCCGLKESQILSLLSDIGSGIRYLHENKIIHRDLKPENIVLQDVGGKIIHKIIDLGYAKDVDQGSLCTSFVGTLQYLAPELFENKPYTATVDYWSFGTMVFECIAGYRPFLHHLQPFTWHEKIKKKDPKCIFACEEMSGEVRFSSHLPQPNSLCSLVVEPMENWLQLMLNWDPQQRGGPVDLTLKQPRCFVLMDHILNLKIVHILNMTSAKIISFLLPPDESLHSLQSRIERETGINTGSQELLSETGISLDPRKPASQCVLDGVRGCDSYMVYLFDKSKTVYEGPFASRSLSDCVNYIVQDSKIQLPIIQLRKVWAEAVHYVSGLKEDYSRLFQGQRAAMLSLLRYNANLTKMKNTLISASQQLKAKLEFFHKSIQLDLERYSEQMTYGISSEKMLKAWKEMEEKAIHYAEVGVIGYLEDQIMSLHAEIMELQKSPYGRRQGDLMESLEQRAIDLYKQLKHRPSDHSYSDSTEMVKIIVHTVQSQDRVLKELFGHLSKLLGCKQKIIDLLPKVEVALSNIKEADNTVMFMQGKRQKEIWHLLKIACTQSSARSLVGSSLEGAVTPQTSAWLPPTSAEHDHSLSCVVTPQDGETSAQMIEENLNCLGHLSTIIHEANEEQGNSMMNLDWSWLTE

Serine/threonine-protein kinase N1, sequence (Q16512 2-942 limits assumed): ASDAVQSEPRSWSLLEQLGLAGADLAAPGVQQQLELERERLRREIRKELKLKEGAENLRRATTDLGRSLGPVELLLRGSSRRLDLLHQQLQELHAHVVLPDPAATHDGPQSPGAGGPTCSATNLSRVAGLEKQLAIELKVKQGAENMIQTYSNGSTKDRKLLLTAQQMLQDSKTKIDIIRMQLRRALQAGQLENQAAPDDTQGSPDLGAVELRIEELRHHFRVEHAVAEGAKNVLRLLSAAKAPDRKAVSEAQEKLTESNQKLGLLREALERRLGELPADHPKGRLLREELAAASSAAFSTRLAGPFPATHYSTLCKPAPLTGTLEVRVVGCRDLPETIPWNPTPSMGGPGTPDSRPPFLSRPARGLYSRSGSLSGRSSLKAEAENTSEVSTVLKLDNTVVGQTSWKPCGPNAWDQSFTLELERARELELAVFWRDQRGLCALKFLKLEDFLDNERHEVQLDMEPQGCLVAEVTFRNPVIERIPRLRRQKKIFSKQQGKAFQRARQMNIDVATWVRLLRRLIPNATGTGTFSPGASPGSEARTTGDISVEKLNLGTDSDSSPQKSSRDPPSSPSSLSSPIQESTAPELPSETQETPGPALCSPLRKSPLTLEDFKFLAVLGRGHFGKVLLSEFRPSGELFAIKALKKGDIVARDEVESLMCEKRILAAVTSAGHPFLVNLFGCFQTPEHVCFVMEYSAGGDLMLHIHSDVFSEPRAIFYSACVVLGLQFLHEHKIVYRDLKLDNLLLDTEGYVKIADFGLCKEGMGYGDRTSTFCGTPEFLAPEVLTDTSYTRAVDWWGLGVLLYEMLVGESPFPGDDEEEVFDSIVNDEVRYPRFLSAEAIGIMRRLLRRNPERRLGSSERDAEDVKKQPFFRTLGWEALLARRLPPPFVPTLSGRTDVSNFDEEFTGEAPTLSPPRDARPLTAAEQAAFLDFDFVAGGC
Fibroblast growth factor receptor 2 (Homo sapiens), sequence (P21802 22-821 limits assumed): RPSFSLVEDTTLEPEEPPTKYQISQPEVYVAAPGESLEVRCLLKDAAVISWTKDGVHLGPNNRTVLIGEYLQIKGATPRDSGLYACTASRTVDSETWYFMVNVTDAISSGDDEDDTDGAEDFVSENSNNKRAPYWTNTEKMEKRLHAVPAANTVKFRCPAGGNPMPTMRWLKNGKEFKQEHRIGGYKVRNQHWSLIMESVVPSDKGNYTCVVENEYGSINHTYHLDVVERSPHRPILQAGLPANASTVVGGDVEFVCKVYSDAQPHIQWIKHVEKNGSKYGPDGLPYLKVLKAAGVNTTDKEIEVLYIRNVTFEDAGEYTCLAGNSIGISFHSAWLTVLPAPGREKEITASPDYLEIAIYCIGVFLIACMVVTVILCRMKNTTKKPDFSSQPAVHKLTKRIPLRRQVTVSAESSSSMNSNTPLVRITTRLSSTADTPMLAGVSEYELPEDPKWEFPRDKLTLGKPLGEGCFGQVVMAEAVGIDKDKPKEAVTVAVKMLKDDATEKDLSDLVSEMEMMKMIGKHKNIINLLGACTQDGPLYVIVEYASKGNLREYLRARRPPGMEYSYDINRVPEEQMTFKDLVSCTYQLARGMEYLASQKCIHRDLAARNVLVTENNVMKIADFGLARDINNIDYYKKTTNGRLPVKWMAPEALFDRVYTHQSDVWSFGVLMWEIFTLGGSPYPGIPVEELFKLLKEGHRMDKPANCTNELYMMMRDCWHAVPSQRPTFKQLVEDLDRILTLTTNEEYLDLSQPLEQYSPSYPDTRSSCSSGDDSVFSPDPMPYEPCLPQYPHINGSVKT
MAP kinase-activated protein kinase 2, sequence (P49137 whole entry, looked up): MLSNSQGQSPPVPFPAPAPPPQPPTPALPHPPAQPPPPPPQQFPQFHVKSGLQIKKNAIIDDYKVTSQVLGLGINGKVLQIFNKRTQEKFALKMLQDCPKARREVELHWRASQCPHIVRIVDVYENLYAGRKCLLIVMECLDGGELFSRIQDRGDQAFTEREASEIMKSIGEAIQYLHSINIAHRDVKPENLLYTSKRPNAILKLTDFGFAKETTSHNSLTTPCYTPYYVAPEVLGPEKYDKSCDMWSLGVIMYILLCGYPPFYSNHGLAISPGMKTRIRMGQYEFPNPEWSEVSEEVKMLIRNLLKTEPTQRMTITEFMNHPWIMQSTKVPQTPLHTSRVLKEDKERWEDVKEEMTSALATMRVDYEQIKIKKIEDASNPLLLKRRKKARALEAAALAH
Mitogen-activated protein kinase kinase kinase 8, sequence (P41279 whole entry): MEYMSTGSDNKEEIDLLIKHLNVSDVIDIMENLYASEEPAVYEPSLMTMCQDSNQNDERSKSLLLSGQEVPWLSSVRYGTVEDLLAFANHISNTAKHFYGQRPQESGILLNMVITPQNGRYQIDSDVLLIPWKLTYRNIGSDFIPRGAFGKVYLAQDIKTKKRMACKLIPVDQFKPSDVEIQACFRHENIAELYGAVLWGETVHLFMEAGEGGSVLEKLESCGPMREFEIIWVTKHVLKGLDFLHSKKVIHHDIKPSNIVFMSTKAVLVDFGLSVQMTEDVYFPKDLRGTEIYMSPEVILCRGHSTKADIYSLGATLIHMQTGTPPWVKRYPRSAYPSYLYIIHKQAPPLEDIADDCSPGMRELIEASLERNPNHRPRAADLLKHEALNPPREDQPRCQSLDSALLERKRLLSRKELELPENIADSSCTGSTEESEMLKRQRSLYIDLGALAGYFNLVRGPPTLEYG
Serine/threonine-protein kinase 32B (Homo sapiens), sequence (Q9NY57 whole entry): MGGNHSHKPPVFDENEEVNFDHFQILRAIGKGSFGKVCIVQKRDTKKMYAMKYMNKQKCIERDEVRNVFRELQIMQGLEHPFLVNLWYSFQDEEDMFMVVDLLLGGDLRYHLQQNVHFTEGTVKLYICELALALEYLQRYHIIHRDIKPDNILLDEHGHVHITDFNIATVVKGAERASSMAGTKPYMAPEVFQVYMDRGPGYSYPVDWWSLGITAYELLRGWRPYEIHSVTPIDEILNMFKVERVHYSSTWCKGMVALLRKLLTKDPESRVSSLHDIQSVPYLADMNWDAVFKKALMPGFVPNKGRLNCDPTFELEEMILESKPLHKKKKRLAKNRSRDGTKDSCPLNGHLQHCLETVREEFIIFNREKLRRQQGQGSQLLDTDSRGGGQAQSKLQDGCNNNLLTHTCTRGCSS
Calcium/calmodulin-dependent protein kinase type II subunit gamma (Homo sapiens), sequence (Q13555 whole entry): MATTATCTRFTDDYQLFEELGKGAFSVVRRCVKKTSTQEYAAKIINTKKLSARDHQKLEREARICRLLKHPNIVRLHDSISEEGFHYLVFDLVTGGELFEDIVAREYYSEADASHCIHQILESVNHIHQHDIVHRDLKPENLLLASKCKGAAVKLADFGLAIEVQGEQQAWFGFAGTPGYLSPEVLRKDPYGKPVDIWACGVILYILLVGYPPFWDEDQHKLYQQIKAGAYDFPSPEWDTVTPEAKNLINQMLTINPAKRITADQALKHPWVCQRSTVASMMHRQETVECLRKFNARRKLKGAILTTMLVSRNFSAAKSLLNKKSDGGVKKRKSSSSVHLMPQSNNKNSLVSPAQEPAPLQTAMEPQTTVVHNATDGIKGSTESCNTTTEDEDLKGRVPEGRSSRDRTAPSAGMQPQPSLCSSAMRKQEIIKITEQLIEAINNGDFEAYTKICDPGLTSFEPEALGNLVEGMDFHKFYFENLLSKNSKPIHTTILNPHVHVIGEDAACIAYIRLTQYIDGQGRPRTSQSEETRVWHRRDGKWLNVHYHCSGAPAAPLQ
Receptor tyrosine-protein kinase erbB-2, sequence (P04626 whole entry): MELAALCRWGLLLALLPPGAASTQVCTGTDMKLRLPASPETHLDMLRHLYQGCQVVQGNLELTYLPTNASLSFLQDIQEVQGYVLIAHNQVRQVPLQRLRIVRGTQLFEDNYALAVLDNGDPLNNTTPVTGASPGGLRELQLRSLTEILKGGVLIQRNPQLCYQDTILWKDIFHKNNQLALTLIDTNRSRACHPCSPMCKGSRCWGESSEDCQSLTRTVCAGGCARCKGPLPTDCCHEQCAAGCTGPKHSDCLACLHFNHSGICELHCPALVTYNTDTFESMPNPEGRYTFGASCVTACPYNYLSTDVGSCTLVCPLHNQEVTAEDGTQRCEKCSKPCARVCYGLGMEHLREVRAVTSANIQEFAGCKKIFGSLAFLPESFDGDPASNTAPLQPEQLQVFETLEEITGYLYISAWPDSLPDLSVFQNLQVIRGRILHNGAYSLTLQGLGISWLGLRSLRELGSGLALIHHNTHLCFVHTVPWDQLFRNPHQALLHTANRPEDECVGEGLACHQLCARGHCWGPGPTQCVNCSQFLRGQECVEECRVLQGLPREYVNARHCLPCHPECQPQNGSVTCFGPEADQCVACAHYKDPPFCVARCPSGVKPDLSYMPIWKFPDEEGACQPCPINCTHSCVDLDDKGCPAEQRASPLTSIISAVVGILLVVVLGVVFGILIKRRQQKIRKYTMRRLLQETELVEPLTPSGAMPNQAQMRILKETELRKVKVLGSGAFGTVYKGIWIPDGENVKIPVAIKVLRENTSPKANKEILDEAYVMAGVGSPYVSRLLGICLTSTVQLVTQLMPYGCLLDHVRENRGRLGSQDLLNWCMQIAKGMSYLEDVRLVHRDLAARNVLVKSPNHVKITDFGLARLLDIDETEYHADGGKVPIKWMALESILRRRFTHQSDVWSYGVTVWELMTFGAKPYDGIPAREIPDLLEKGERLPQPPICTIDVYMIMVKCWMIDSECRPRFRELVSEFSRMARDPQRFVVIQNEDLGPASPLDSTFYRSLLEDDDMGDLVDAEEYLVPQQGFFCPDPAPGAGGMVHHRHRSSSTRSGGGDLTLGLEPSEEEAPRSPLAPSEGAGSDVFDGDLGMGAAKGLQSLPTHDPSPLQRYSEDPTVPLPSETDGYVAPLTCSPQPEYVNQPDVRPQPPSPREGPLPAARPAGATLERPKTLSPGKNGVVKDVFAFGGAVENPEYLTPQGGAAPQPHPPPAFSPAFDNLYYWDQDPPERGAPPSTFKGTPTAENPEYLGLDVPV

For `CCC(=O)N1CCN(c2ccc(-n3c(=O)ccc4cnc5ccc(-c6cnc7ccccc7c6)cc5c43)cc2C(F)(F)F)CC1`, the % of control [1] was 100%.
`CN(C)CCOc1ccc(-c2nc(-c3ccncc3)c(-c3ccc4c(c3)CC/C4=N\O)[nH]2)cc1` gave a % of control [2] of 94%.
`C=CC(=O)Nc1cccc(C(=O)Nc2ccc(Nc3cc(-c4[nH]c(SC)nc4C)ccn3)cc2)c1` gave a % of control ([3]; at 1 µM) of 72%, a % of control ([3]; at 5 µM) of 34% and a % of control ([4]; at 1 µM) of 100%. For the same molecule, the % of control ([4]; at 5 µM) was 91%.
With `Cc1cc([C@@H](C)Nc2ccccc2C(=O)O)c2nc(N3CCOCC3)cc(=O)n2c1` [AZD-6482] the % of control [5] was 71%.
Molecule `CC[C@@H]1[C@H](F)C(=O)N[C@@H]1COc1nccc2cc(C(N)=O)c(OC)cc12` [ZIMLOVISERTIB] has a % of inhibition [6] of 24.9%.
`CNC(=O)Nc1ccc(-c2nc(N3CC4CCC(C3)O4)c3cnn(C4CCC5(CC4)OCCO5)c3n2)cc1` gave a % of control [7] of 92%.
With `COCC(=O)NC/C=C/c1ccc2ncnc(Nc3ccc(Oc4ccc(C)nc4)c(C)c3)c2c1` [CP-724714] the % of control [8] was 98%.
`CN1Cc2nccc(-c3cn(C)nc3-c3ccc(F)cc3)c2C1=O` gave a % of inhibition [9] of 3%.
`O[C@H]1CC[C@H](Nc2ncc3nc(Nc4c(F)cc(F)cc4F)n([C@H]4CCOC4)c3n2)CC1` was tested, and the % of control [10] was 52%.
`N#Cc1cccc(-c2c[nH]c3ncnc(N4CCOCC4)c23)c1` gave a % of control [11] of 71%.
